From US9284252B2, “Use of jasmonate ester derivatives for treating benign hyperproliferative skin disorders” (SEPAL PHARMA LTD., priority 2009, dated 2016)

How the values were obtained:
[1] = test system: reconstituted three-dimensional human epidermis model (EPISKIN-Standard Model); assay: Skin irritation assay, reconstituted human epidermis model EPISKIN-SM; conditions: 15 minutes application, 42 hours post-incubation
Experimental: (§1) In order to test the toxicity of jasmonate ester derivatives in human skin, skin irritation assay using a reconstituted three-dimensional human epidermis model (EPISKIN-Standard Model™; conducted at BSL-Bioservices, Planegg, Germany) was performed.
(§2) Irritant potential of the compound was assessed from the relative mean tissue viabilities obtained compared to the corresponding negative control tissues concurrently treated with Aqua Dest (distilled water). The release of Interleukin-1α (IL-1α) into the tissue culture medium was determined to confirm the obtained results.

[2] = test system: reconstituted three-dimensional human epidermis model (EpiDerm skin model); assay: Skin corrosion assay, EpiDerm skin model; format: cell-based
Experimental: In particular, MJ was applied topically to the EpiDerm™ tissue and incubated for 3 and 60 minutes at each time. After the incubation period, tissue viability was assessed via MTT reduction assay.

[3] = test system: actinic keratosis (AK) cell line HT297.T; assay: XTT proliferation assay in actinic keratosis cell line; format: cell-based; conditions: 72 h, 3 days treatment, HT297.T cells
Experimental: IC50 values were calculated from the mean of triplicate wells for each experiment. […]

[4] = test system: UVB-damaged skin in SKH-1 mice; assay: Skin lesion formation induced by UVB, damaged skin mouse model of actinic keratosis; format: in vivo
Description: The efficacy of Compound C was further evaluated in an animal model of Actinic Keratosis (AK). The purpose of the study was to determine the effect of compound C against lesion formation in UVB-damaged skin in SKH-1 mice, a mouse model of AK and non-melanoma skin cancers.
The study was divided to two parts: pre-study that included UVB irradiation to induce the damage to the skin, and efficacy study that included the treatment with Compound C compared to standard treatment and efficacy evaluation. After 16 weeks of UVB irradiation, 60% of the animals developed lesions, and treatment was started on week 17 and continued for 7.5 weeks. The total duration of the study was 23.5 weeks.
The study included female mice, 6-8 weeks of age at study initiation. After 16 weeks of UVB irradiation, when 60% (36/60) of the animals developed at least 1 lesion, mice were randomly stratified into 12 mice per group (see Table 4) according to score and number of lesions. Picato gel (Ingenol mebutate, Leo Pharma Inc.) was used as the positive control.
For UVB irradiation, Vilber-Lourmat (France) Lamp VL-6.M was used, irradiating at 312 nm with an intensity of 0.89 mW/cm^2 at a distance of 15 cm. Determination of UVB irradiation Minimal Erythemal Dose (MED) was performed prior to the beginning of the study (during the pre-study period). Animals were UVB irradiated during different time periods (starting at 30 sec) and the presence of erythema was recorded 24 and 48 hours later.
Observations for clinical scoring and signs of erythema and edema, were performed twice a week. Erythema and edema scoring were performed according to the grading levels described in Table 5 below. Lesion numbers were determined once a week during Weeks 4-6 and twice a week during Weeks 7-16 until treatment started. During treatment, lesion number and erythema-edema scores were performed twice a week.

[5] = format: in vitro ADME; conditions: human
Experimental: These studies were conducted by BSL-Bioservices (Planegg, Germany) and the samples were analyzed by ATC (Liege, Belgium).

[6] = test system: reconstituted three-dimensional human epidermis model (EPISKIN-Standard Model)
Experimental: as §1, §2

lymphomas in mice = conditions: cited from earlier work
[7] = test system: cervical cancer cell lines; conditions: range of cervical cancer cell lines; cited from earlier work
[8] = test system: metastatic melanoma cells; conditions: cited from earlier work
[9] = test system: malignant keratinocytes A431 cell line; conditions: cited from earlier work

CCCCCCCCCCCCOS(=O)(=O)[O-].[Na+] [5% SDS solution]
Mean relative tissue viability (%) (MTT reduction) [1]: 3.3 ± 0.6%
IL-1α release ([1]; tissue culture medium): 236.7 ± 23.0 pg/mL

[K+].[OH-] [8N KOH]
Mean relative tissue viability (%) (MTT reduction) after 3 minutes ([2]; 3 minutes treatment): 26 ± 5.3%
Mean relative tissue viability (%) (MTT reduction) after 60 minutes ([2]; 60 minutes treatment): 14 ± 3.7%

CC/C=C\CC1C(=O)CCC1CC(=O)Oc1cccc2cccnc12 (stereo not shown) [Compound C]
IC50 [3]: 0.25 µM
maximal reduction in lesion number on Day 50 ([4]; Compound C 2.5% topical, group 3F): 65%
maximal reduction in lesion number on Day 50 ([4]; Compound C 40% topical, group 5F): 72%
maximal reduction in lesion number on Day 50 ([4]; group 4F (5% topical per Table 4)): 70%
histopathology evaluation of skin ([4]; groups treated with compound C): look similar to naïve (healthy) animals
gross pathology examination ([4]; mouse, in vivo): No abnormality was detected
skin erythema or edema following topical treatment ([4]; mouse, in vivo): no skin erythema or edema
reduction in total area of lesions and total tumor area ([4]; topical, concentration not given): 70%

CC/C=C\CC1C(=O)CCC1CC(=O)OC (stereo not shown) [MJ, methyl jasmonate]
local intra-skin concentrations [5]: ~1 M
corrosion classification according to OECD Guideline and EC Commission Regulation [2]: non-corrosive
IC50 [3]: 21.1 µM
irritation classification according to ECVAM SIVS recommendations [6]: non-irritant
prevention of development of lymphomas (lymphomas in mice): effective
cytotoxicity [7]: cytotoxic
cell motility [8]: suppresses cell motility
development of lung metastases [8]: inhibits the development of lung metastases
toxicity on A431 cell line [9]: low toxicity

CC/C=C\C[C@H]1C(=O)CC[C@@H]1CC(=O)O [jasmonic acid]
toxicity on A431 cell line [9]: low toxicity
